Patent publication US7589099B2, “7-t-butoxyiminomethylcamptothecin conjugated in position 20 with integrin antagonists” (priority 2004, dated 2009)
Where two headings read alike, the source gives them in different places.

What was measured:
[1] = test system: A2780 human ovarian carcinoma cells; test: cells; type: cell-based
Method: (§1) To evaluate the effect of the compound on survival cells, the sulphorodamine B test was used. To test the effects of the compounds on cell growth, PC3 human prostate carcinoma, A498 human renal carcinoma, A2780 human ovarian carcinoma cells and NCI-H460 non-small cell lung carcinoma were used. A2780, NCI-H460 and PC3 tumor cells were grown RPMI 1640 containing 10% fetal bovine serum (GIBCO), whereas A498 tumor cells were grown in EMEM containing 10% fetal bovine serum (GIBCO).
(§2) Tumor cells were seeded in 96-well tissue culture plates (Corning) at approximately 10% confluence and were allowed to attach and recover for at least 24 h. […] The plates were incubated for 72 h at 37° C. or 2 h followed by 72 h of recovery. At the end of the treatment, the plates were washed by removal of the surnatant and addition of PBS 3 times. 200 μl PBS and 50 μl of cold 80% TCA were added. The plates were incubated on ice for at least 1 h. TCA was removed, the plates were washed 3 times for immersion in distilled-water and dried on paper and at 40° C. for 5 min.
(§3) Then 200 μl of 0.4% sulphorodamine B in 1% acetic acid were added. The plates were incubated at room temperature for other 30 min. Sulphorodamine B was removed, the plates were washed for immersion in 1% acetic acid for 3 times, then they were dried on paper and at 40° C. for 5 min.
(§4) Then 200 μl Tris 10 mM were added, the plates were kept under stirring for 20 min. The survival cell was determined as optical density by a Multiskan spectrofluorimeter at 540 nm. The amount of cells killed was calculated as the percentage decrease in sulphorodamine B binding compared with control cultures.
(§5) The IC50 values were calculated with the “ALLFIT” program.

[2] = test system: A498 human renal carcinoma; test: cells; type: cell-based
Method: as §1, §2, §3, §4, §5

[3] = test system: PC3 human prostate carcinoma; test: cells; type: cell-based
Method: as §1, §2, §3, §4, §5

[4] = test system: NCI-H460 non-small cell lung carcinoma; test: Cytotoxicity, sulphorodamine B test, NCI-H460; type: cell-based, human; settings: 2 h of treatment (followed by 72 h of recovery), read-out: NCI-H460 IC50 ± SD
Method: as §1
as §2, with “TCA was removed, the plates were washed 3 times for immersion in distilled-water and dried on paper and at 40° C. for 5 min.” left out
as §4, §5

purified αvβ5 receptor = biological target: T1, purified αvβ5 receptor (Homo sapiens, UniProt P06756+P18084); test: Binding to integrin αvβ5 receptors ([125I]echistatin competition)
T1 construct: purchased Chemicon CC1020
Method: (§6) An aliquot of 100 μl was added to 96-well plates and incubated overnight at +4° C. Plates were washed once with buffer (50 mM Tris, pH 7.4, 100 mM NaCl, 2 mM CaCl2, 1 mM MgCl2, 1 mM MnCl2, 1% bovine serum albumin) and then incubated for another 2 hours at room temperature. Plates were washed twice with the same buffer and incubated for 3 hours at room temperature with the radioactive ligand [^125I]echistatin (Amersham Pharmacia Biotech) 0.15 nM in the presence of competition ligands. At the end of incubation, the wells were washed and the radioactivity determined using a gamma counter (Packard). Non-specific ligand binding was determined in the presence of excess cold echistatin (1 μM).
(§7) The IC50 parameter was elaborated using “ALLFIT” software.

purified αvβ3 receptor = biological target: T2, purified αvβ3 receptor (Homo sapiens, UniProt P05106+P06756); test: Binding to integrin αvβ3 receptors ([125I]echistatin competition)
T2 construct: purchased Chemicon CC1020
Method: as §6, with “7,4,” for “7.4,”, “0.05” for “0.15”, “Non-specific binding of the” for “Non-specific”, “ligand” for “ligand binding”
as §7

Molecule: CC[C@@]1(OC(=O)[C@@H](NC(=O)[C@H](CC(=O)O)NC(=O)OC(C)(C)C)C(C)C)C(=O)OCc2c1cc1n(c2=O)Cc2c-1nc1ccccc1c2/C=N/OC(C)(C)C [ST2676, 20-O-Val-Asp-gimatecan]
- IC50 ([1]; Homo sapiens, A2780, 72 h of treatment, read-out: A2780 IC50 ± SD): < 0.97 nM
- IC50 ([2]; Homo sapiens, A498, 72 h of treatment, read-out: A498 IC50 ± SD): 47 ± 5 nM
- IC50 ([3]; Homo sapiens, 72 h of treatment, read-out: PC3 IC50 ± SD): 38 ± 4 nM
- IC50 ([4]; Homo sapiens, NCI-H460): 170 ± 20 nM

Molecule: CC[C@@]1(OC(=O)[C@@H](NC(=O)[C@@H](N)CC(=O)NCc2ccc(C[C@@H]3NC(=O)C(Cc4ccccc4)NC(=O)[C@H](CC(=O)O)NC(=O)CNC(=O)[C@H](CCCNC(=N)N)NC3=O)cc2)C(C)C)C(=O)OCc2c1cc1n(c2=O)Cc2c-1nc1ccccc1c2/C=N/OC(C)(C)C (stereo partly drawn) [ST2671]
- IC50 ([3]; 72 h): 350 ± 80 nM
- PC3 IC50 ± SD ([3]; 72 h of treatment): potent cytotoxicity
- IC50 (purified αvβ5 receptor): 54.2 ± 0.5 nM
- IC50 (purified αvβ3 receptor): 22.8 ± 1.2 nM

Molecule: CC[C@@]1(OC(=O)[C@@H](NC(=O)CCC(=O)NCc2ccc(C[C@@H]3NC(=O)C(Cc4ccccc4)NC(=O)[C@H](CC(=O)O)NC(=O)CNC(=O)[C@H](CCCNC(=N)N)NC3=O)cc2)C(C)C)C(=O)OCc2c1cc1n(c2=O)Cc2c-1nc1ccccc1c2/C=N/OC(C)(C)C (stereo partly drawn) [ST2670]
- IC50 ([1]; 72 h): 400 nM
- IC50 ([2]; 72 h): 1600 ± 300 nM
- IC50 ([3]; 72 h): 9600 ± 600 nM
- IC50 (purified αvβ5 receptor): 74 ± 0.8 nM
- IC50 (purified αvβ3 receptor): 47.7 ± 0.9 nM

Molecule: CN1C(=O)[C@@H](Cc2ccccc2)NC(=O)[C@H](CC(=O)O)NC(=O)CNC(=O)[C@H](CCCNC(=N)N)NC(=O)[C@@H]1Cc1ccc(CN)cc1 [ST2700]
- IC50 (purified αvβ5 receptor; RGD peptides, [125I]echistatin 0.15 nM, read-out: αvβ5 IC50 ± SD): 0.9 ± 0.005 nM

Molecule: 20-O-Val-gimatecan [ST2678]
- IC50 [4]: 25 ± 2 nM
